Results taken from patent US8822198B2, “Method for optimizing a biopharmaceutical production process” (priority 2009, dated 2014).
Entries after “also recorded” stand apart in the source; their conditions may differ.

Tests used:
CHO [1] = test: Bioreactor fermentation, pCO2 regulated/unregulated and buffer systems (Example 3); assay type: cell-based, Chinese Hamster
Protocol: The fermentation using the multifermenter is again preceded by an optimising test using SDR. In this preliminary test, in accordance with Example 1, different NaHCO3 concentrations are tested in conjunction with the media Sod-β/H and TES/K. In the experiment, in addition to the evaluation by the drop in pO2, an identically covered well plate is used having pH sensors. […] (The data from the preliminary test are not shown here.) Fermentation takes place in two multifermenters (corresponding to twelve individual fermenters) with different media combinations. The procedure and handling are based on the sections described under the headings Equipment, Methods and Operating steps. [table] The CO2 profile shown above applies to the regulated bioreactor FS 33.1. in the remaining fermenters, after the seeding (d0), for a specific length of time at a specific control magnitude, CO2(gas) is added in order to provide the cells with a minimum of dissolved CO2. […] In the context of determining cell density it was jointly decided that no further manual interventions are required for supplying CO2 gas. [table]

CHO [2] = test: Shake flask experiment, buffer screen (Example 2); assay type: cell-based, Chinese Hamster; settings: shake flasks; for cell growth / buffer performance: 11 d, incubator 1
Protocol: The selection of the buffer systems (cell-free) is now operated with cells. The criterion for the choice of the buffer systems used in this experiment is an acceptable osmolality and good buffer characteristics during the introduction of gas into the shake flask incubator. […] The objective is to determine the best buffer medium, in relation to the growth performance of the cell, as a basis for a subsequent fermentation in the bioreactor. The preparation is carried out analytically as precisely as possible. The pH values are adjusted by BGA comparison. Lower buffer concentrations are added by means of stock solutions. After manufacture, sterile filtration is carried out. As a safety measure the experiments are carried out with n=2. To achieve two different gas supply variants, the experiments are split between two different incubators. A summary can be found in the experiment plan. […] The analysis on d0 (day 0) was carried out immediately after the seeding under the LAF box, i.e. without any previous effect of the CO2 atmosphere of the incubator.

CHO [3] = test: Fermentation verification buffer system (Example 4); assay type: cell-based, Chinese Hamster; settings: CO2-regulated bioreactors, NaHCO3 0-16 mM, FIG. 6
Source text: In six CO2-regulated bioreactors the buffer systems TES and Sod-β are used with different concentrations of NaHCO3, in order to determine the optimum concentration of NaHCO3 in the medium. […] Medium B, NaHCO3-free, MOPS-free+weighed amount/stock solution buffer substance(s) • Feeding: […] NaOH (1.2M) (no CO2) • pCO2: day 0-3 5%, day 3-11 3% The buffer systems used with different concentrations of NaHCO3 are shown in Table 6. [table]

CHO [4] = settings: acid added on day 3, FIG. 9B
Protocol: Different acids are added to three CO2-regulated bioreactors for a pH shift from 6.95 to 6.8 on day 3. The concentrations of the acid solutions are chosen such that the quantities of substance required, which have been determined beforehand in a titration, are present in 50 ml of solution.
The test set-up is described below: • Platform: Bioreactor/Multifermenter • Method: Fed Batch • Cell: CHO • Seeding density: 3×10^5 vc/mL • Start volume: 1.8 L • Run time: 11 days • Medium: Medium B, NaHCO3-free, MOPS-free+Sod-β (25 mM) • Feeding: Feed I continuously from day 2 • Temperature: 37° C. • pO2: 60% • Speed: 160 rpm • pH: day 0-3 7.00±0.05, day 3-11 6.80±0.05 • pH regulation: NaOH (1.2M) (no CO2)

CHO [5] = settings: Na salt added on day 3, FIG. 8
Protocol: In 10 250 ml shake flasks, cells are tested for their acid tolerance with the addition of sodium salts. The salt solutions are selected such that the quantities of acids determined by titration beforehand are present in 1.5 ml of solution for a pH shift from 7.1 to 6.7. On day 3 these 1.5 ml of the different salt solutions are added to the shake flasks to simulate a pH shift.

Structure (SMILES) | cell growth / buffer performance (CHO [2]) | standardised product concentration (CHO [4]) | other results
[Na+].[OH-] [NaOH, sodium hydroxide solution] | – | – | product formation rate by pH regulation agent (CHO [1]; NaOH versus Na2CO3, FIG. 4): better product formation rate
O.O.O.O.O.O=P([O-])([O-])OC(CO)CO.[Na+].[Na+] [Sod-β, sodium-β-glycerophosphate-pentahydrate] | best buffer substances | – | standardised product concentration with different NaHCO3 concentrations (CHO [3]): not dependent on the amount of NaHCO3 in the medium; also recorded: productivity of the cells is independent of the concentration of NaHCO3
O=S(=O)(O)CCNC(CO)(CO)CO [TES, N-tris(hydroxymethyl)methyl-2-aminoethanesulphonic acid] | best buffer substances | – | titre concentration compared with the control (CHO [1]; FIG. 5C, control NaHCO3 36 mmol/L): at the same level as those of the control; standardised product concentration with different NaHCO3 concentrations (CHO [3]): same product concentrations both with and without the use of NaHCO3; also recorded: identical product concentrations
NC(CO)(CO)CO [Trizma base] | runs poorly | – | toxicity (CHO [2]; any concentration, pH stable): may be some toxicity
Cl [hydrochloric acid] | – | same product concentrations | –
O=P(O)(O)O [phosphoric acid] | – | same product concentrations | –
CC(=O)[O-].[Na+] [sodium acetate] | – | – | toxic effect on cell growth (CHO [5]): toxic effect
O=S(=O)(O)O [sulphuric acid] | – | same product concentrations | –
